What was measured:
[1] = system: Microbial Deaminase (strained rumen fluid); assay: In vitro microbial deaminase inhibition (rumen fluid, alfalfa hay, grain mixture; 4 hours); type: cell-based; conditions: Table III, dithiooxamide 0 ppm, 240 min
Procedure: (§1) The in vitro fermentation system contained 75 ml. strained rumen fluid, 200 mg, alfalfa hay, 800 mg. of a crude protein grain mixture, 0.8 to 1.6 mM of each of 10 essential amino acids (threonine, valine, methionine, isoleucine, leucine, phelylalanine, tryptophan, lysine and arginine), and 0 to 50 ppm dithiooxamide. Flasks were incubated for 4 hours with effects upon amino acid deamination assessed as described for the previous system. Using standard chromatographic techniques, effects upon methanogenesis and upon the pattern of volatile fatty acid production were determined.
(§2) ^1 In vitro fermentation system contained 75 ml. strained rumen fluid
(§3) 200 mg. alfalfa hay, 800 mg. grain mixture (16% crude protein) and 1.6 mM
(§4) of each of ten essential amino acids. Flasks were incubated for four
(§5) 200 mg. alfalfa hay, 800 mg. grain mixture (16% crude protein) and 0.8 mM

[2] = system: gas production (strained rumen fluid); assay: In vitro gas production; type: cell-based; conditions: Table III, dithiooxamide 0 ppm, control 65
Procedure: as §1, §2, §5, §4

[3] = system: volatile fatty acid production (strained rumen fluid); assay: In vitro volatile fatty acid production; type: cell-based; conditions: Table III, dithiooxamide 0 ppm; for Volatile Fatty Acids (molar distribution, %): Propionate: control 15; for Volatile Fatty Acids (molar distribution, %): Butyrate: control 21; for Volatile Fatty Acids (molar distribution, %): Acetate: control 64; for Volatile Fatty Acid Carbon: control 125
Procedure: as §1, §2, §3, §4, §5

[4] = system: methanogenesis (strained rumen fluid); assay: In vitro effects upon methanogenesis; type: cell-based; conditions: Table III, dithiooxamide 0 ppm
Procedure: as §1, §2, §3, §4, §5

sheep = conditions: amino acid supplement; cited from earlier work
protein deposition = conditions: compared with acetate; Potter et al., Eskeland et al.; cited from earlier work

Compound: O=S(=O)([O-])[O-].[Co+2] [Cobalt Sulfate, reference compound]
- MDI (%) ([1]; cobalt sulfate .013 ppm): 1%
- MDI (%) ([1]; cobalt sulfate .067 ppm): 2%
- Gas Production ([2]; cobalt sulfate .013 ppm): 65 cc
- Gas Production ([2]; cobalt sulfate .067 ppm): 65 cc
- Volatile Fatty Acids (molar distribution, %): Propionate ([3]; cobalt sulfate .013 ppm): 15%
- Volatile Fatty Acids (molar distribution, %): Butyrate ([3]; cobalt sulfate .013 ppm): 22%
- Volatile Fatty Acids (molar distribution, %): Acetate ([3]; cobalt sulfate .013 ppm): 63%
- Volatile Fatty Acid Carbon ([3]; cobalt sulfate .013 ppm): 120 μ moles/ml.
- Volatile Fatty Acids (molar distribution, %): Propionate ([3]; cobalt sulfate .067 ppm): 15%
- Volatile Fatty Acids (molar distribution, %): Butyrate ([3]; cobalt sulfate .067 ppm): 22%
- Volatile Fatty Acids (molar distribution, %): Acetate ([3]; cobalt sulfate .067 ppm): 63%
- Volatile Fatty Acid Carbon ([3]; cobalt sulfate .067 ppm): 127 μ moles/ml.
- Methane Inhibition (%) ([4]; cobalt sulfate .013 ppm): 1%
- Methane Inhibition (%) ([4]; cobalt sulfate .067 ppm): -5%

Compound: O=S(=O)([O-])[O-].[Cu+2] [Copper Sulfate, reference compound]
- MDI (%) ([1]; copper sulfate .067 ppm): 3%
- MDI (%) ([1]; copper sulfate .333 ppm): 6%
- Gas Production ([2]; copper sulfate .067 ppm): 65 cc
- Gas Production ([2]; copper sulfate .333 ppm): 64 cc
- Volatile Fatty Acids (molar distribution, %): Propionate ([3]; copper sulfate .067 ppm): 15%
- Volatile Fatty Acids (molar distribution, %): Butyrate ([3]; copper sulfate .067 ppm): 21%
- Volatile Fatty Acids (molar distribution, %): Acetate ([3]; copper sulfate .067 ppm): 64%
- Volatile Fatty Acid Carbon ([3]; copper sulfate .067 ppm): 123 μ moles/ml.
- Volatile Fatty Acids (molar distribution, %): Propionate ([3]; copper sulfate .333 ppm): 15%
- Volatile Fatty Acids (molar distribution, %): Butyrate ([3]; copper sulfate .333 ppm): 22%
- Volatile Fatty Acids (molar distribution, %): Acetate ([3]; copper sulfate .333 ppm): 63%
- Volatile Fatty Acid Carbon ([3]; copper sulfate .333 ppm): 121 μ moles/ml.
- Methane Inhibition (%) ([4]; copper sulfate .067 ppm): -5%
- Methane Inhibition (%) ([4]; copper sulfate .333 ppm): -11%

Compound: CSCC[C@H](N)C(=O)O [Methionine]
- quality of wool in sheep (in words) (sheep): particularly useful in increasing the quality of wool in sheep

Compound: CCC(=O)O [propionate]
- energy metabolites for protein deposition in sheep (in words) (protein deposition): better energy metabolites than acetate for protein deposition in sheep

— US3949090A, “Methods and compositions for improving feed efficiency in ruminants using dithiooxamide” (SmithKline Corporation, priority 1974, dated 1976)
